Laboratory results reported in US20240285599A1, “Mature-Hepatocyte Transdifferentiation Suppressing Composition” (OSAKA UNIVERSITY, priority 2021, published 2024).

What was measured:
[1] = test system: TRAF3/PTEN knockdown HepG2 cell; assay: Cell proliferation assay (IncuCyte) of TRAF3/PTEN knockdown HepG2; format: cell-based, human
Method: Hepatocytes or cholangiocarcinoma cells were inoculated on a 96-well plate, and their cell proliferation was analyzed with IncuCyte (trademark) Si (Sartorius AG, Germany) in accordance with the manufacturer's instructions.
Specifically, 24 hours after the start of the culture of each of the PTKD #1HepG2 and the PTKD #1PHH obtained in Test Example 5, NIKSMI described above was added at a concentration of 9 μM. 48 Hours after that, the cells were recovered, and the mRNA of KRT19 was quantified, followed by immunoblotting.
Specifically, the NIK KD #1 or the NIK KD #2 was transfected into the PTKD #1HepG2 and the PTKD #1PHH obtained in Test Example 5 to provide a PTKDNIK #1 and a PTKDNIK #2, respectively. 72 Hours after the start of the culture of each of the cells, the cell was recovered, and the mRNA of KRT19 was quantified, followed by immunoblotting.
The above-mentioned cell proliferation analysis and the production of the cell growth curves were performed with IncuCyte (trademark).

[2] = test system: TRAF3/PTEN knockdown primary human hepatocyte (PHH); assay: KRT19 mRNA quantification and immunoblotting (P52) in TRAF3/PTEN knockdown primary human hepatocyte; format: cell-based; details: PHH (PTKD #1); for increase in expression of P52 by knockdown of TRAF3 and PTEN: western blot
Method: Human hepatocyte chimeric mice were generated in accordance with the protocol of the previous report (Hasegawa M, et al. Biochem Biophys Res Commun. 2011; 405(3): 405-410). Ganciclovir was administered to each of highly immunocompromised NOG mice (TK-NOG) each having a liver in which a herpes simplex virus type 1 thymidine kinase transgene had been expressed to induce liver injury, followed by the transplantation of human hepatocytes. As described in the previous report (Murai K, et al. Sci Rep. 2020; 10(1): 941), primary human hepatocytes were collected from the human hepatocyte chimeric mice each having a chimeric liver rate of 90% or more by using a two-step collagenase-pronase reflux method. It was recognized by FACS that the human hepatocytes accounted for 90% or more of the collected cells. Those cells were spread on a collagen-coated dish and cultured.
The transfection of siRNA or a plasmid into cells was performed with Lipofectamine RNAiMAX Transfection Reagent (Thermo Fisher Scientific, Inc., USA) or Lipofectamine 2000 (Thermo Fisher Scientific, Inc., USA), respectively, and with Opti-MEM (Thermo Fisher Scientific, Inc., USA). The transfection of the siRNA was performed as follows: the cells were dispersed at a concentration of 100,000 cells/mL; 10 μM of the siRNA was mixed into 100 μL of the Opti-MEM at a ratio of 1 μL, and the mixture was left at rest for 5 minutes; and then 3 μL of the RNAiMAX was mixed into the mixture, and the whole was left at rest for 15 minutes, followed by administration to the supernatant of the previously dispersed cells. Further, a medium change was performed 24 hours thereafter.
A procedure for western blotting is as described in the previous report (Tanaka S, et al. Hepatology. 2016; 64(6): 1994-2014). The protein extracts of cells and animal tissues were prepared by using a lysis buffer having added thereto a protease inhibitor (Nacalai Tesque, Inc., Japan) and a phosphatase inhibitor (Nacalai Tesque, Inc., Japan). In western blotting for the detection of NIK, MG-132 (ChemScene, USA) was administered at a concentration of 5 μM 4 hours before protein recovery. The following antibodies were used in immunodetection: TRAF3 (1:1,000 Cell Signaling, #4729), PTEN (1:1,000 Cell Signaling, #9188), KRT19 (1:50,000 Abcam, #ab52625), p100/p52 (1:1,000 Cell Signaling, #4882), NIK (1:1,000 Cell Signaling, #4994), and β-actin (1:10,000 Sigma-Aldrich Co., LLC, #A5316). Anti-mouse IgG, HRP-linked whole Ab sheep (Cytiva, Japan), or anti-rabbit IgG, HRP-linked whole Ab donkey (Cytiva, Japan) was used as a secondary antibody, and luminescence analysis was performed with SuperSignal (trademark) West Pico PLUS Chemiluminescent Substrate (Thermo Fisher Scientific, Inc., USA).
Total RNA was extracted from a cell line and a human liver tissue with RNeasy Mini Kit (QIAGEN N.V., Nederland). Then, 1 μg of the total RNA was reverse-transcribed with ReverTra Ace qPCR RT Kit (Toyobo Co., Ltd., Tokyo) to synthesize complementary DNA. The mRNA expression of each of the following genes was analyzed through use of a TaqMan gene expression assay: human GAPDH (Hs02758991), human TRAF3 (Hs00936781), human PTEN (Hs02621230), human KRT19 (Hs00761767), human NIK (Hs01089753), mouse Gapdh (Mm09999915), mouse Traf3 (Mm00495752), mouse Pten (Mm00477208), mouse Krt19 (Mm00492980), mouse NIK (Mm00444166), and mouse Alb (Mm00802090). The gene expression amount of a human and the gene expression amount of a mouse were normalized to the expression amount of GAPDH.
The effect of TRAF3/PTEN inhibition on the expression of a bile duct marker in each of a primary human hepatocyte (hereinafter also referred to as “PHH”) and a human hepatoma cell line HepG2 cell (hereinafter also referred to as “HepG2”) was evaluated. The PHH and the HepG2 are each a mature hepatocyte having an albumin-producing ability. The TRAF3 and PTEN of each of the HepG2 and the PHH were knocked down with siRNA. […]

[3] = NIK siRNA transfected, cell growth curve FIG. 14B
[4] = NIK siRNA transfected, 72 h, FIG. 13
[5] = NIK siRNA transfected, cells recovered after 72 h culture, FIG. 13

Row | Molecule | increase in proliferation rate of the HepG2 cell by knockdown of TRAF3 and PTEN ([1]; NIKSMI 9 μM, cell growth curve FIG. 14A) | increase in expression of KRT19 by knockdown of TRAF3 and PTEN ([2]; NIKSMI 9 μM added 24 h after start of culture, cells recovered 48 h later, FIG. 11) | increase in expression of P52 by knockdown of TRAF3 and PTEN ([2]; NIKSMI 9 μM, 48 h, FIG. 11) | increase in proliferation rate of the HepG2 cell by knockdown of TRAF3 and PTEN [1, 3] | increase in expression of P52 by knockdown of TRAF3 and PTEN [2, 4] | increase in expression of KRT19 by knockdown of TRAF3 and PTEN [2, 5]
1 | COc1cc(C(N)=O)nc(-c2cccc(C#C[C@]3(O)CCN(C)C3=O)c2)c1 [NIKSMI, (R)-6-(3-((3-hydroxy-1-methyl-2-oxopyrrolidin-3-yl)ethynyl)phenyl)-4-methoxypicolinamide] | blocked | significantly suppressed | significantly suppressed | – | – | –
2 | NIK KD #2: siRNA of NIK, SEQ ID NO: 4 (sense) and 5 (antisense), from Thermo Fisher Scientific (sense GCAAAGAGCAAGAACCAAAUU; antisense UUUGGUUCUUGCUCUUUGCGU; listed as RNA, chemistry not given here) | – | – | – | blocked | significantly suppressed | significantly suppressed
3 | NIK KD #1: siRNA of NIK, SEQ ID NO: 2 (sense) and 3 (antisense), from Thermo Fisher Scientific (sense CAAACGCAAAGAGCAAGAAUU; antisense UUCUUGCUCUUUGCGUUUGCA; listed as RNA, chemistry not given here) | – | – | – | blocked | significantly suppressed | significantly suppressed
